US8772330B2, “Inhibitor(s) of transporters or uptake of monoaminergic neurotransmitters” (State of Oregon acting by and through the State Board of …, priority 2009, dated 2014)
Where a name gives a salt, the structure may show the parent alone.

Legend:
[1] = molecular target: T1, dopamine (DA) transporter (Homo sapiens, UniProt Q01959); conditions: for Slope, Dopamine (DA) transporter: Table 1, binding curve slope
[2] = molecular target: T2, serotonin (5-HT) transporter (Homo sapiens, UniProt P31645); conditions: for Slope, Serotonin (5-HT) transporter: Table 1, binding curve slope
T2 sequence (P31645 whole entry): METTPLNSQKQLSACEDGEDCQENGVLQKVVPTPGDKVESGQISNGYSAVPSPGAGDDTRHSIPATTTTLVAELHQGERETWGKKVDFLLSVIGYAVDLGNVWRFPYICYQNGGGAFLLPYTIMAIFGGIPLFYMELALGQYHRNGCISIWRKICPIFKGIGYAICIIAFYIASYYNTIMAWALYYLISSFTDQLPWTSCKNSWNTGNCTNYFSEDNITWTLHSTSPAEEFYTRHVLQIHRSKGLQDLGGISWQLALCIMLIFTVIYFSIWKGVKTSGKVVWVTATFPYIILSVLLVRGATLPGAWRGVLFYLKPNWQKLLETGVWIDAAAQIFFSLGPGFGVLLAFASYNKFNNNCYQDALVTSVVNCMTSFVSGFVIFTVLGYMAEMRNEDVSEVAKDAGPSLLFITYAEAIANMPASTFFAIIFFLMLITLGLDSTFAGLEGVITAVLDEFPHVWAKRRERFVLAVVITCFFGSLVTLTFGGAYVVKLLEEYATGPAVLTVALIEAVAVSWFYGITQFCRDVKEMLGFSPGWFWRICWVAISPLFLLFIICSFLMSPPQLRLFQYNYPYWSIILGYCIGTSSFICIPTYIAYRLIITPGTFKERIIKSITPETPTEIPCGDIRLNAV

[3] = molecular target: T3, norepinephrine (NE) transporter (Homo sapiens, UniProt P23975)
Target sequence in this assay (P23975 whole entry): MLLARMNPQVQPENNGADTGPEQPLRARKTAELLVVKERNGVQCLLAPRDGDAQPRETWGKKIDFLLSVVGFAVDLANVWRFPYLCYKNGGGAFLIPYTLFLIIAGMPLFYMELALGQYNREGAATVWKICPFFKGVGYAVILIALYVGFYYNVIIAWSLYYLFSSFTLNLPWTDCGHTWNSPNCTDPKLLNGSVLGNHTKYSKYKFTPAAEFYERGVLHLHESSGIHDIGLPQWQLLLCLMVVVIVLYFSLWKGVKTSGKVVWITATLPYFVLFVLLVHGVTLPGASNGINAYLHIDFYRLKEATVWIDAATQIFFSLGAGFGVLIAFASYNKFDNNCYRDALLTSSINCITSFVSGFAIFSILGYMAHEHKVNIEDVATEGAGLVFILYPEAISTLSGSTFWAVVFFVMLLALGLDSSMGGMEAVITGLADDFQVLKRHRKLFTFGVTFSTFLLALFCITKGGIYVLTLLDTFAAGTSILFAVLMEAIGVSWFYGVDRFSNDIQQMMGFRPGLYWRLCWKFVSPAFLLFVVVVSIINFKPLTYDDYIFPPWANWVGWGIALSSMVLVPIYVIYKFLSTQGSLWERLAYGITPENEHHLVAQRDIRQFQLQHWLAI

[4] = molecular target: T2, serotonin (5-HT) transporter; conditions: Table 2; data derived from literature; read-out: Affinity (Ki), 5-Hydroxy Tryptamine (5-HT) transporter; cited from earlier work
[5] = molecular target: T3, norepinephrine (NE) transporter; conditions: Table 2; data derived from literature; read-out: Affinity (Ki), Norepinephrine (NE) transporter; cited from earlier work
Target sequence in this assay (P23975 whole entry, species assumed): as the sequence (P23975 whole entry) above

[6] = molecular target: T1, dopamine (DA) transporter; conditions: Table 2; data derived from literature; read-out: Affinity (Ki), Dopamine (DA) transporter; cited from earlier work

T1 sequence (Q01959 whole entry): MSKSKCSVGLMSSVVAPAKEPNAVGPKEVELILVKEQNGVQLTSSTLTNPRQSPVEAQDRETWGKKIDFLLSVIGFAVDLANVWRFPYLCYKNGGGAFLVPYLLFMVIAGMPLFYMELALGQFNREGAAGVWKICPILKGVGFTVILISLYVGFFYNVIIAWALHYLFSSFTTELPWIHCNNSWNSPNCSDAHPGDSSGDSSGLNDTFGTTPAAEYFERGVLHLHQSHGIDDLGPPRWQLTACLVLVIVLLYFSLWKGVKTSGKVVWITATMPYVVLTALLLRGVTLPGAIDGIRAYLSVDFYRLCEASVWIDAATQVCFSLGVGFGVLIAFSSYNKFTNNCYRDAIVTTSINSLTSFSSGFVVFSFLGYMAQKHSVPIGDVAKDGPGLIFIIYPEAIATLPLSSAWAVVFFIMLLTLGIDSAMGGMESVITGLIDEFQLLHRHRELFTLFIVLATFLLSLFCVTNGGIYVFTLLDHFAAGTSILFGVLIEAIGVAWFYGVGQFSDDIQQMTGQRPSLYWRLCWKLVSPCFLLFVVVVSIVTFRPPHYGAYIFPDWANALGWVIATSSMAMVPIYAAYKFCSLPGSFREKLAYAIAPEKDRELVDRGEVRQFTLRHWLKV

## Fc1ccc(C(OCCN2CCN(CCCc3ccccc3)CC2)c2ccc(F)cc2)cc1 [GBR12909, reference compound]
[1]
  Slope, Dopamine (DA) transporter: −1.25
[1]; with reference to Table 1
  times more potent than DWJW0002 as inhibitor of dopamine transporter: 16 times
  times more potent than DWJW0003 as inhibitor of dopamine transporter: 8 times

## CNC[C@@H]1C[C@]1(Oc1cccc2ccccc12)c1cccs1 (racemic) [DWJW0002, (E)-N-Methyl-[2-(naphthalen-1-yloxy)-2-(thiophen-2-yl)cyclopropyl)methanamine Hydrochloride]
[2]
  Slope, Serotonin (5-HT) transporter: −0.92
[2]; with reference to Table 1
  times more potent than DWJW0003 as inhibitor of serotonin transporter: about 3 times
[1]
  Slope, Dopamine (DA) transporter: −1.11

## CNCC1CC1(Oc1cccc2ccccc12)c1cccs1 (racemic) [DWJW0003, (Z)-N-Methyl-[2-(naphthalen-1-yloxy)-2-(thiophen-2-yl)cyclopropyl]methanamine Hydrochloride]
[2]
  Slope, Serotonin (5-HT) transporter: −1.19
[3]; Table 1, binding curve slope
  Slope, Norepinephrine (NE) transporter: −0.84
[3]; with reference to Table 1
  times more potent than DWJW0002 as inhibitor of norepinephrine transporter: about 9 times
[1]
  Slope, Dopamine (DA) transporter: −1
[1]; with reference to Table 1
  times more potent than DWJW0002 as inhibitor of dopamine transporter: about 2 times

## C#Cc1ccc([C@@H]2CN3CCC[C@@H]3c3ccccc32)cc1 [JNJ-7925476]
[4]
  Ki: 0.9 ± 0.1 nM
[5]
  Ki: 16.6 ± 7 nM
[6]
  Ki: 5.2 ± 1 nM

## CN(C)CCCN1c2ccccc2CCc2ccccc21 [Imipramine, reference compound]
[2]
  Slope, Serotonin (5-HT) transporter: −1.06
